Laboratory results as given in US6737383B1, “Herbicidal oxadiazolidines” (priority 1999, dated 2004).

Columns and labels:
arrowleaf sida = assay: Test C postemergence arrowleaf sida; type: in vivo, Sida rhombifolia; details: 0 to 100 scale, 0 no effect, 100 complete control
Summary of the method: (§1)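 Compounds in a non-phytotoxic solvent with surfactant were sprayed postemergence on greenhouse-grown plants in 60:40 sandy loam/potting mix. After about 14 to 21 days, visual ratings against untreated controls on a 0 (no effect) to 100 (complete control) scale.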

corn = assay: Test C postemergence corn; type: in vivo, Zea mays; details: 0 to 100 scale, 0 no effect, 100 complete control
Summary of the method: as §1

cotton = assay: Test C postemergence cotton; type: in vivo, Gossypium hirsutum; details: 0 to 100 scale, 0 no effect, 100 complete control
Description: (§2) Compounds evaluated in this test were formulated in a non-phytotoxic solvent mixture which included a surfactant and applied to plants that were grown for various periods of time before treatment (postemergence application). A mixture of sandy loam soil and greenhouse potting mix in a 60:40 ratio was used for the postemergence test.
Plantings of these crops and weed species were adjusted to produce plants of appropriate size for the postemergence test. All plant species were grown using normal greenhouse practices. Crop and weed species include arrowleaf sida (Sida rhombifolia), barnyardgrass (Echinochloa crus-galli), cocklebur (Xanthium strumarium), common ragweed (Ambrosia elatior), corn (Zea mays), cotton (Gossypium hirsutum), eastern black nightshade (Solanum ptycanthum), fall panicum (Panicum dichotomiflorum), field bindweed (Convolvulus arvensis), giant foxtail (Setaria faberii), hairy beggarticks (Bidens pilosa), ivyleaf morningglory (Ipomoea hederacea), johnsongrass (Sorghum halepense), ladysthumb smartweed (Polygonum persicaria), lambsquarters (Chenopodium album), large crabgrass (Digitaria sanguinalis), purple nutsedge (Cyperus rotundus), redroot pigweed (Amaranthus retroflexus), soybean (Glycine max), surinam grass (Brachiaria decumbens), velvetleaf (Abutilon theophrasti) and wild poinsettia (Euphorbia heterophylla).
Treated plants and untreated controls were maintained in a greenhouse for approximately 14, to 21 days, after which all treated plants were compared to untreated controls and visually evaluated. Plant response ratings, summarized in Table C, were based upon a 0 to 100 scale where 0 was no effect and 100 was complete control. A dash response (−) means no test result.

johnsongrass = assay: Test C postemergence johnsongrass; type: in vivo, Sorghum halepense; details: 0 to 100 scale, 0 no effect, 100 complete control
Summary of the method: as §1

downy brome = assay: Test E downy brome; type: in vivo, Bromus tectorum; details: Postemergence; for Plant response rating, Downy brome: 0 to 100 scale; for Plant response rating, Downy brortie: Rate 250 g/ha, 0 to 100 scale (0 no effect, 100 complete control)
Description: as §2, with “in the 1- to 4-leaf stage” for “grown for various periods of time before treatment”
(§3) Plantings of these crops and weed species were adjusted to produce plants of appropriate size for the postemergence test. All plant species were grown using normal greenhouse practices. Crop and weed species include annual bluegrass (Poa annua), blackgrass (Alopecurus myosuroides), black nightshade (Solanum nigra), chickweed (Stellaria media), common poppy (Papaver rhoeas), deadnettle (Lamium amplexicaule), downy brome (Bromus tectorum), field violet (Viola arvensis), galium (Galium aparine), green foxtail (Setaria viridis), Italian ryegrass (Lolium multiflorum), jointed goatgrass (Aegilops cylindrica), kochia (Kochia scoparia), lambsquarters (Chenopodium album), littleseed canarygrass (Phalaris minor), rape (Brassica napus), redroot pigweed (Amaranthus retroflexus), Russian thistle (Salsola kali), scentless chamomile (Matricaria inodora), spring barley (Hordeum vulgare), sugar beet (Beta vulgaris), sunflower (Helianthus annuus), ivyleaf speedwell (Veronica hederaefolia), spring wheat (Triticum aestivum), winter wheat (Triticum aestivum), wild buckwheat (Polygonum convolvulus), wild mustard (Sinapis arvensis), wild oat (Avena fatua), windgrass (Apera spica-venti) and winter barley (Hordeum vulgare).
(§4) Treated plants and untreated controls were maintained in a greenhouse for approximately 21 to 28 days, after which all treated plants were compared to untreated controls and visually evaluated. […] A dash response (-) means no test result.

green foxtail [1] = assay: Test E green foxtail; type: in vivo, Setaria viridis; details: Postemergence
Summary of the method: (§5)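 For postemergence, plants at the 1- to 4-leaf stage, in a 60:40 mix of sandy loam and potting mix, treated with compound formulated in a surfactant-containing non-phytotoxic solvent. Visual assessment versus untreated controls followed roughly 21–28 days in the greenhouse.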

Russian thistle [2] = assay: Test E Russian thistle; type: in vivo, Salsola kali; details: Postemergence
Summary of the method: as §5

winter barley = assay: Test E winter barley; type: in vivo, Hordeum vulgare; details: Postemergence
Description: as §2, with “in the 1- to 4-leaf stage” for “grown for various periods of time before treatment”
as §3, §4

Green foxtail [3] = assay: Test D green foxtail; type: in vivo
Summary of the method: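 Herbicide screen in the greenhouse. A non-phytotoxic solvent mixture with surfactant carried the test chemical; in pre-emergence tests it went onto the soil of pots seeded no more than a day earlier. Injury was scored by eye 14 to 21 days after application, 0 to 100.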

deadnettle = assay: Test E deadnettle; type: in vivo, Lamium amplexicaule; details: Preemergence
lambsquarters = assay: Test E lambsquarters; type: in vivo, Chenopodium album; details: Preemergence
Russian thistle [4] = assay: Test E Russian thistle; type: in vivo, Salsola kali; details: Preemergence
wild mustard = assay: Test E wild mustard; type: in vivo, Sinapis arvensis; details: Preemergence
morningglory = assay: Test A morningglory; type: in vivo, Ipomoea spp.; details: 0 to 10 scale where 0 is no effect and 10 is complete control
Summary of the method: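 Visual injury score, 0 (no effect) to 10 (complete control), vs untreated controls at ~11 d in greenhouse. Pre: soil drench on sandy loam. Post: spray to runoff, 1–2 leaf stage.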

[5] = Rate 250 g/ha, 0 to 100 scale (0 no effect, 100 complete control)
[6] = Rate 64 g/ha, Preemergence; 0 to 100 scale, 0 no injury, 100 complete control
[7] = Rate 125 g/ha, Preemergence; 0 to 100 scale, 0 no injury, 100 complete control
[8] = Rate 62 g/ha, 0 to 100 scale, 0 no effect, 100 complete control
[9] = Rate 125 g/ha, 0 to 100 scale (0 no effect, 100 complete control)
[10] = Rate 500 g/ha, 0 to 100 scale, 0 no effect, 100 complete control
[11] = Rate 500 g/ha, 0 to 100 scale where 0 is no effect and 100 is complete control

## CCn1c(=O)on(C(=O)N(c2ccc(F)cc2)C(C)C)c1=O [Compound 107]
Arrowleaf sida; Rate 280 g/ha
  Plant response rating Arrowleaf sida: 30
Arrowleaf sida; Rate 560 g/ha
  Plant response rating Arrowleaf sida: 75
Arrowleaf sida; Rate 1120 g/ha
  Plant response rating Arrowleaf sida: 85
corn; Rate 140 g/ha
  Plant response rating, Corn: 0
corn; Rate 280 g/ha
  Plant response rating, Corn: 5
corn; Rate 560 g/ha
  Plant response rating, Corn: 55
corn; Rate 1120 g/ha
  Plant response rating, Corn: 60
cotton; Rate 140 g/ha
  Plant response rating Cotton: 45
cotton; Rate 280 g/ha
  Plant response rating Cotton: 60
cotton; Rate 560 g/ha
  Plant response rating Cotton: 80
cotton; Rate 1120 g/ha
  Plant response rating Cotton: 90
johnsongrass; Rate 140 g/ha
  Plant response rating Johnsongrass: 35
johnsongrass; Rate 280 g/ha
  Plant response rating Johnsongrass: 50
johnsongrass; Rate 560 g/ha
  Plant response rating Johnsongrass: 90
johnsongrass; Rate 1120 g/ha
  Plant response rating Johnsongrass: 90
Downy brome; Rate 62 g/ha
  Plant response rating, Downy brome: 0
Downy brome; Rate 125 g/ha
  Plant response rating, Downy brome: 10
Downy brome
  Plant response rating, Downy brortie: 0
Green foxtail [1]; Rate 62 g/ha, 0 to 100 scale
  Plant response rating, Green foxtail: 20
Green foxtail [1]; Rate 125 g/ha, 0 to 100 scale
  Plant response rating, Green foxtail: 30
Green foxtail [1]; [5]
  Plant response rating, Green foxtail: 85
Russian thistle [2]; Rate 62 g/ha, 0 to 100 scale
  Plant response rating, Russian thistle: 0
Russian thistle [2]; Rate 125 g/ha, 0 to 100 scale
  Plant response rating, Russian thistle: 0
Russian thistle [2]; [5]
  Plant response rating, Russian thistle: 0
Winter barley; Rate 62 g/ha, 0 to 100 scale
  Plant response rating, Barley (winter): 5
Winter barley; Rate 125 g/ha, 0 to 100 scale
  Plant response rating, Barley (winter): 5
Winter barley; [5]
  Plant response rating, Barley (winter): 10
Green foxtail [3]; Preemergence; Rate 16 g/ha; 0 to 100 scale, 0 no injury, 100 complete control
  Plant response rating, Green foxtail: 100
Green foxtail [3]; Preemergence; Rate 32 g/ha; 0 to 100 scale, 0 no injury, 100 complete control
  Plant response rating, Green foxtail: 100
Green foxtail [3]; Rate 16 g/ha; Preemergence; 0 to 100 scale, 0 no injury, 100 complete control
  Plant response rating, Green foxtail: 100
Green foxtail [3]; Rate 32 g/ha; Preemergence; 0 to 100 scale, 0 no injury, 100 complete control
  Plant response rating, Green foxtail: 100
Green foxtail [3]; [6]
  Green foxtail plant response rating: 100
  Plant response rating, Green foxtail: 100
Green foxtail [3]; [7]
  Green foxtail plant response rating: 100
  Plant response rating, Green foxtail: 100
Green foxtail [3]; Rate 250 g/ha; Preemergence; 0 to 100 scale
  Plant response rating, Green foxtail: 100
Green foxtail [3]; Rate 500 g/ha, Preemergence; 0 to 100 scale
  Plant response rating, Green foxtail: 100
deadnettle; [8]
  Plant response rating, Deadnettle: 50
deadnettle; [9]
  Plant response rating, Deadnettle: 60
deadnettle; Rate 250 g/ha, 0 to 100 scale
  Plant response rating, Deadnettle: 85
lambsquarters; [8]
  Plant response rating, Lambsquarters: 100
lambsquarters; [9]
  Plant response rating, Lambsquarters: 100
lambsquarters; Rate 250 g/ha, 0 to 100 scale
  Plant response rating, Lambsquarters: 100
Russian thistle [4]; [8]
  Plant response rating, Russian thistle: 0
Russian thistle [4]; [9]
  Plant response rating, Russian thistle: 0
Russian thistle [4]; Rate 250 g/ha, 0 to 100 scale
  Plant response rating, Russian thistle: 10
Wild mustard; [8]
  Plant response rating, Wild mustard: 100
Wild mustard; [9]
  Plant response rating, Wild mustard: 85
Wild mustard; Rate 250 g/ha, 0 to 100 scale
  Plant response rating, Wild mustard: 100

## CCn1c(=O)on(C(=O)N(c2ccc(F)cc2F)C(C)C)c1=O [Compound 116]
Arrowleaf sida; Rate 140 g/ha
  Plant response rating Arrowleaf sida: 0
Arrowleaf sida; Rate 560 g/ha
  Plant response rating Arrowleaf sida: 85
Arrowleaf sida; Rate 1120 g/ha
  Plant response rating Arrowleaf sida: 90
corn; Rate 140 g/ha
  Plant response rating, Corn: 0
corn; Rate 280 g/ha
  Plant response rating, Corn: 0
corn; Rate 560 g/ha
  Plant response rating, Corn: 15
corn; Rate 1120 g/ha
  Plant response rating, Corn: 20
cotton; Rate 140 g/ha
  Plant response rating Cotton: 10
cotton; Rate 280 g/ha
  Plant response rating Cotton: 50
cotton; Rate 560 g/ha
  Plant response rating Cotton: 50
johnsongrass; Rate 140 g/ha
  Plant response rating Johnsongrass: 10
johnsongrass; Rate 280 g/ha
  Plant response rating Johnsongrass: 40
johnsongrass; Rate 560 g/ha
  Plant response rating Johnsongrass: 60
johnsongrass; Rate 1120 g/ha
  Plant response rating Johnsongrass: 80
Downy brome; Rate 62 g/ha
  Plant response rating, Downy brome: 0
Downy brome; Rate 125 g/ha
  Plant response rating, Downy brome: 0
Downy brome
  Plant response rating, Downy brortie: 30
Downy brome; Rate 500 g/ha, 0 no effect, 100 complete control
  Plant response rating, Downy brome: 60
Green foxtail [1]; Rate 62 g/ha, 0 to 100 scale
  Plant response rating, Green foxtail: 20
Green foxtail [1]; Rate 125 g/ha, 0 to 100 scale
  Plant response rating, Green foxtail: 70
Green foxtail [1]; [5]
  Plant response rating, Green foxtail: 75
Green foxtail [1]; [10]
  Plant response rating, Green foxtail: 75
Russian thistle [2]; Rate 62 g/ha, 0 to 100 scale
  Plant response rating, Russian thistle: 40
Russian thistle [2]; Rate 125 g/ha, 0 to 100 scale
  Plant response rating, Russian thistle: 0
Russian thistle [2]; [5]
  Plant response rating, Russian thistle: 0
Russian thistle [2]; [10]
  Plant response rating, Russian thistle: 0
Winter barley; Rate 62 g/ha, 0 to 100 scale
  Plant response rating, Barley (winter): 0
Winter barley; Rate 125 g/ha, 0 to 100 scale
  Plant response rating, Barley (winter): 10
Winter barley; [5]
  Plant response rating, Barley (winter): 10
Winter barley; [10]
  Plant response rating, Barley (winter): 10
deadnettle; [9]
  Plant response rating, Deadnettle: 95
deadnettle; Rate 250 g/ha, 0 to 100 scale
  Plant response rating, Deadnettle: 80
deadnettle; [11]
  Plant response rating, Deadnettle: 80
lambsquarters; [9]
  Plant response rating, Lambsquarters: 100
lambsquarters; Rate 250 g/ha, 0 to 100 scale
  Plant response rating, Lambsquarters: 100
lambsquarters; [11]
  Plant response rating, Lambsquarters: 100
Russian thistle [4]; [9]
  Plant response rating, Russian thistle: 0
Russian thistle [4]; Rate 250 g/ha, 0 to 100 scale
  Plant response rating, Russian thistle: 0
Russian thistle [4]; [11]
  Plant response rating, Russian thistle: 50
Wild mustard; [9]
  Plant response rating, Wild mustard: 75
Wild mustard; Rate 250 g/ha, 0 to 100 scale
  Plant response rating, Wild mustard: 85
Wild mustard; [11]
  Plant response rating, Wild mustard: 65

## CCOC(=O)Cn1c(=O)on(C(=O)N(c2ccc(F)cc2)C(C)C)c1=O [Compound 128]
morningglory; Postemergence, Rate 1000 g/ha
  Plant response rating, Morningglory: 0
morningglory; Pre-emergence, Rate 2000 g/ha
  Plant response rating, Morningglory: 0

## Cc1ccccc1Cn1c(=O)on(C(=O)N(c2ccc(Cl)cc2)C(C)C)c1=O [Compound 136]
morningglory; Postemergence, Rate 1000 g/ha
  Plant response rating, Morningglory: 9
morningglory; Pre-emergence, Rate 2000 g/ha
  Plant response rating, Morningglory: 0

## C=C(C)Cn1c(=O)on(C(=O)N(c2ccc(F)cc2)C(C)C)c1=O [Compound 139]
Green foxtail [3]; [6]
  Green foxtail plant response rating: 98
  Plant response rating, Green foxtail: 98
